One substance from patent publication US7264947B2, “Activity dependent neurotrophic factor III (ADNF III)” (United States of America, as represented by the Secretary …, priority 1997, dated 2007) can be followed below.

The test system of assay [1] is cerebral cortical cultures. Nature of the assay: neuroprotection against β-amyloid peptide (25-35) neurotoxicity in cerebral cortical cultures. It counts as cell-based, newborn rats. As to conditions: 25 μM β-amyloid fragment 25-35, five days; P<0.01.
Assay [2] deals with ADNF III mRNA. As to the kind of experiment: northern blot of ADNF III mRNA in brain of ApoE-deficient mice. It counts as in vivo. To be noted: 28-day-old ApoE-deficient mice, daily injections for the first two weeks of life. As to the method: FIG. 9 illustrates northern blot identification of ADNF III mRNA. RNA was extracted from the brains of 28-day-old apolipoprotein E-deficient mice (E) treated with saline for the first two weeks of life or with NAP (E+N), control mice (C) were treated with saline. RNA was subjected to northern blot hybridization with a PCR-labeled ADNF III specific probe (α-^32P-dCTP, Amersham, 3000 Ci/mmol) (see FIG. 2) in comparison to an actin-specific probe (Gozes et al., Mol. Brain Res. 2:137-148 (1987)).
b. Hybridization: The blots were prehybridized for two hours at 55° C. and were hybridized with a specific complementary DNA probe for the mouse ADNF III cDNA (a PCR product obtained using the following primers: 61-79 and the complementary strand from position 438-455, which are described in detail below). The labeled probe was prepared by random priming and incubated with the blot for 16 hours at 55° C. Prehybridization and hybridization solutions (12 ml/blot) contained the following: 50% formamide (deionized using mixed bed resin, Sigma), 50 mM sodium phosphate buffer (pH 6.5), 0.8 M NaCl, 1 mM EDTA, 5× Denhart's reagent (0.05% BSA, 0.05% polyvinylpyrrolidone and 0.05% Ficoll), 0.1% SDS and […] poly(A). The labeled probe was dissolved in 12 ml of hybridization solution and added to the prehybridization mixture. […]

Assay [3] has as its system ApoE-deficient mice. As to the kind of experiment: developmental milestones (placing response, cliff avoidance) in ApoE-deficient mice. It counts as in vivo. The source says:
Animals (15-37 per experimental group, 5-8 per litter) were submitted to placing response assays daily following injection of: 1. saline (open circles, C57B6 mice=control, n=37, closed circles, ApoE deficient=ApoE, n=22). Experiments were repeated three times. Score indicates: 0=no reaction, 1=time to acquire a response shorter than 15 seconds; 2=time to acquire a response shorter than 10 seconds; 3=time to acquire a response shorter than 5 seconds. Age (days) indicate: the age of the tested animals in days. Results are mean±SEM.
ApoE knockout mice and normal controls were a gift from the late Prof. Shlomo Eisenberg of Tel Aviv University, originally provided by Dr. J. L. Breslow (Plump et al., Cell 71:343-353 (1992)). The ApoE knockout mice were obtained from embryonic stem cells OLA 129 in C57B6×FVB mice (as described). Age-matched controls were inbred C57B6 mice. Groups of mouse pups were treated from birth until the age of 14 days. Daily subcutaneous injections included: […] saline (days 1 through 4), […] saline (days 5 through 10) and […] saline (days 11-14).
Developmental milestones were measured using at least three dams with […] each for every experimental point. All observations were made between 12 noon and 4 pm. From day one through day six, mice were weighed and tested 60 min. after the daily injection. Placing is a behavioral parameter that is measured as the time elapsing between contact of the foot against the edge of an object and its placing on the top of the same object.
Further measurements in the Apo-E-deficient mouse included assessments of the time of onset of developmental milestones of behavior. […] A significant difference was observed among the treatment groups on the first day of testing (P<0.0001), with inbred C57B6 mice developing faster than the ApoE-deficient animals. […] NAP-treated animals were the fastest.

Several values for one entry are separate records, joined by “and”; a condition that tells them apart may be missing. Identical values can stand only once. Entries after “also recorded” stand apart in the source; their conditions may differ.

Take Asn-Ala-Pro-Val-Ser-Ile-Pro-Gln [NAP]: the “concentrations of significant neuroprotection against β-amyloid” value in assay [1] is 10^−16 M and 10^−15 M. Moreover, the “ADNP mRNA content” value in assay [2] is on record as “did not change”. Besides, the “placing response from the second postnatal day onwards” value in assay [3] (P<0.0001) is recorded as “best performers”. Also, the “acquisition of the placing response and the cliff avoidance response” value in assay [3] (daily injection) is “showed acceleration”. The “marked improvement of placing response at the first day of treatment” value in assay [3] (tested 60 min. after injection) is recorded as “marked improvement; also recorded: the fastest”.
